Assay results published in BindingDB's records for doi:10.1016/j.bmc.2012.05.068 (Duquesne University, 2012).
pIC50: −log10 of the molar value.

Key:
[1] = target: Dihydroorotate dehydrogenase (quinone), mitochondrial (Homo sapiens, UniProt Q02127); assay: Inhibition of human DHODH
[2] = target: T1, Bifunctional dihydrofolate reductase-thymidylate synthase (Toxoplasma gondii, UniProt Q07422); assay: Inhibition of Toxoplasma gondii DHFR
T1 sequence (Q07422 whole entry): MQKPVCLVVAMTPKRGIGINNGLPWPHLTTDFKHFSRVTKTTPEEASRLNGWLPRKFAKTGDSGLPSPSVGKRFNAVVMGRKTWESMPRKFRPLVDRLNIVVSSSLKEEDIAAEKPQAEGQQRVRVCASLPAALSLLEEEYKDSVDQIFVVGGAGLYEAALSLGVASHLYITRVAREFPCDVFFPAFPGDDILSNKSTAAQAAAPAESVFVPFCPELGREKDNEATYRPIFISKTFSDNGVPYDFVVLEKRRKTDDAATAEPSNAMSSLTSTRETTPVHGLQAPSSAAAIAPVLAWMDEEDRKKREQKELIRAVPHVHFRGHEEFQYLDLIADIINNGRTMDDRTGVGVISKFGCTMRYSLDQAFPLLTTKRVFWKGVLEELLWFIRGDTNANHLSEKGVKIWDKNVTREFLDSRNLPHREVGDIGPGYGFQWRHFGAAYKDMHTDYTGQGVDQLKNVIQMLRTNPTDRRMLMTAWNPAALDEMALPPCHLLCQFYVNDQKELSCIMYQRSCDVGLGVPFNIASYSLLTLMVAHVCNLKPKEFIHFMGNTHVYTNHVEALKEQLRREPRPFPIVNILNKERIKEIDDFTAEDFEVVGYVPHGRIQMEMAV

[3] = target: T1, Bifunctional dihydrofolate reductase-thymidylate synthase; assay: Inhibition of Toxoplasma gondii thymidylate synthase
[4] = target: Thymidylate synthase (Homo sapiens, UniProt P04818); assay: Inhibition of human thymidylate synthase
Chain of Thymidylate synthase (P04818 whole entry): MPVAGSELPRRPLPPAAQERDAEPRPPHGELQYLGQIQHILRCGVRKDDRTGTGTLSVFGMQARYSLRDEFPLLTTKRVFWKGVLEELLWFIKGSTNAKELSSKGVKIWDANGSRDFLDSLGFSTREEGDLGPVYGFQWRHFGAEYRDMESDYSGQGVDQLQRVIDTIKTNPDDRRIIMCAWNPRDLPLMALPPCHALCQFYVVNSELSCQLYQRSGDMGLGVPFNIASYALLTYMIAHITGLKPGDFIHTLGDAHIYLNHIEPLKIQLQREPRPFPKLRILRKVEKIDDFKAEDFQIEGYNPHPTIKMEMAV

Chain of Dihydroorotate dehydrogenase (quinone), mitochondrial (Q02127 whole entry): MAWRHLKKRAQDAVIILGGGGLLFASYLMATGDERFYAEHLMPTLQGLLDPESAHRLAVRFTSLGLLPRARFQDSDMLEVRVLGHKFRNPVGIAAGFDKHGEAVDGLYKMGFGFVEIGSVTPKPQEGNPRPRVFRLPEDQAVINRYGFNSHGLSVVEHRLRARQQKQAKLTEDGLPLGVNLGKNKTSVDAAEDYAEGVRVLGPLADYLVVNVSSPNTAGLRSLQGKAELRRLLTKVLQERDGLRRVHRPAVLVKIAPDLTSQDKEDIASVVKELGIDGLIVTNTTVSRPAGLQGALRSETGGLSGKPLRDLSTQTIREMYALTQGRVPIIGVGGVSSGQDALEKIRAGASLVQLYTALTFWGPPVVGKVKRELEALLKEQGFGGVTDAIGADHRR

SMILES	pIC50 [1]	pIC50 [4]	pIC50 [2]	pIC50 [3]
CC(C)c1ccc(Nc2[nH]c(N)nc3cc4ccccc4c2-3)cc1		< 4.85	< 4.80	< 4.85
COc1cccc(Nc2[nH]c(N)nc3cc4ccccc4c2-3)c1	< 3.70			
Nc1nc2cc3ccccc3c-2c(Nc2ccc(Cl)cc2F)[nH]1	< 3.70	< 4.89	< 4.80	< 4.89
Nc1nc2cc3ccccc3c-2c(Nc2ccc(Cl)cc2)[nH]1	< 3.70	< 4.85	< 4.80	< 4.85
Nc1nc2cc3ccccc3c-2c(Nc2ccc(F)c(Cl)c2)[nH]1		< 4.89	< 4.80	< 4.89

Further lines, with some results ahead:

pIC50 [1]	pIC50 [4]	SMILES	pIC50 [2]	pIC50 [3]
< 3.70		Nc1nc2cc3ccccc3c-2c(Nc2ccccc2)[nH]1		
< 3.70		Nc1nc2cc3ccccc3c-2c(Nc2cccc(Br)c2)[nH]1	< 4.85	
< 3.70		Nc1nc2cc3ccccc3c-2c(Nc2cccc(F)c2)[nH]1		
